Measured values published in patent publication US9113629B2, “4-amino-6-(4-substituted-phenyl)-picolinates and 6-amino-2-(4-substituted-phenyl)-pyrimidine-4-carboxylates and their use as herbicides” (DOW AGROSCIENCES LLC, priority 2013, dated 2015).
Where two headings read alike, the source gives them in different places.

Legend:
[1] = tested on: Key Broadleaf Weed and Crop Species; assay: Post-emergent Test II herbicidal activity (Table 5); type: in vivo; conditions: post-emergence, 336 h, 14 days after application; for pest or weed control at 70 g/ha: application rate 70 g ai/ha; for pest or weed control at 140 g/ha: application rate 140 g ai/ha
How it was run: (§1)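 Scoring: visual, 0–100% injury at 14 d versus untreated. Treatment: overhead track spray, 187 L/ha, onto plants at the first–second true leaf stage. Growth: greenhouse, ~15 h light, 23–29 °C day, 22–28 °C night.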

[2] = tested on: Key Grass and Sedge Weeds as well as Grass Crops; assay: Post-emergent Test II herbicidal activity (Table 6); type: in vivo; conditions: post-emergence, 336 h; for pest or weed control at 70 g/ha: 70 g ai/ha; for pest or weed control at 140 g/ha: 140 g ai/ha
How it was run: as §1

[3] = ABUTH: velvetleaf (Abutilon theophrasti), read-out: Visual Growth Reduction (%) 14 Days After Application, ABUTH
[4] = AMARE: redroot pigweed (Amaranthus retroflexus), read-out: Visual Growth Reduction (%) 14 Days After Application, AMARE
[5] = BRSNN: oilseed-rape, canola (Brassica napus), read-out: Visual Growth Reduction (%) 14 Days After Application, BRSNN
[6] = CHEAL: lambsquarters (Chenopodium album), read-out: Visual Growth Reduction (%) 14 Days After Application, CHEAL
[7] = EPHHL: wild poinsettia (Euphorbia heterophylla), read-out: Visual Growth Reduction (%) 14 Days After Application, EPHHL
[8] = HELAN: sunflower (Helianthus annuus), read-out: Visual Growth Reduction (%) 14 Days After Application, HELAN
[9] = VIOTR: wild pansy (Viola tricolor), read-out: Visual Growth Reduction (%) 14 Days After Application, VIOTR
[10] = CYPES: yellow nutsedge (Cyperus esculentus), read-out: Visual Growth Reduction (%) 14 Days After Application, CYPES
[11] = DIGSA: crabgrass (Digitaria sanguinalis), read-out: Visual Growth Reduction (%) 14 Days After Application, DIGSA
[12] = ECHCG: barnyardgrass (Echinochloa crus-galli), read-out: Visual Growth Reduction (%) 14 Days After Application, ECHCG
[13] = ORYSA: rice (Oryza sativa), crop, read-out: Visual Growth Reduction (%) 14 Days After Application, ORYSA
[14] = SETFA: giant foxtail (Setaria faberi), read-out: Visual Growth Reduction (%) 14 Days After Application, SETFA
[15] = SORVU: grain sorghum (Sorghum vulgare), read-out: Visual Growth Reduction (%) 14 Days After Application, SORVU
[16] = TRZSS (wheat, Triticum aestivum), crop, read-out: Visual Growth Reduction (%) 14 Days After Application, TRZSS
[17] = ZEAMX: maize, corn (Zea mays), crop, read-out: Visual Growth Reduction (%) 14 Days After Application, ZEAMX

| Compound | pest or weed control at 70 g/ha [1, 3] | pest or weed control at 140 g/ha [1, 3] | pest or weed control at 70 g/ha [1, 4] | pest or weed control at 140 g/ha [1, 4] | pest or weed control at 70 g/ha [1, 5] | pest or weed control at 140 g/ha [1, 5] | pest or weed control at 70 g/ha [1, 6] | pest or weed control at 140 g/ha [1, 6] | pest or weed control at 70 g/ha [1, 7] | pest or weed control at 140 g/ha [1, 7] | pest or weed control at 70 g/ha [1, 8] | pest or weed control at 140 g/ha [1, 8] | pest or weed control at 70 g/ha [1, 9] | pest or weed control at 140 g/ha [1, 9] | pest or weed control at 70 g/ha [2, 10] | pest or weed control at 140 g/ha [2, 10] | pest or weed control at 70 g/ha [2, 11] | pest or weed control at 140 g/ha [2, 11] | pest or weed control at 70 g/ha [2, 12] | pest or weed control at 140 g/ha [2, 12] | further results |
| --- | --- | --- | --- | --- | --- | --- | --- | --- | --- | --- | --- | --- | --- | --- | --- | --- | --- | --- | --- | --- | --- |
| Nc1cc(-c2ccc(I)cc2)nc(C(=O)O)c1Cl [Compound 4] | 95 to 100% | 95 to 100% | 85 to 94% | 85 to 94% | 95 to 100% | 95 to 100% | 95 to 100% | 95 to 100% | 95 to 100% | 95 to 100% | 75 to 84% | 85 to 94% | 0 to 29% | 0 to 29% | 45 to 59% | 95 to 100% | 60 to 74% | 75 to 84% | 75 to 84% | 85 to 94% | pest or weed control at 70 g/ha [2, 13]: 0 to 29%; pest or weed control at 140 g/ha [2, 13]: 0 to 29%; pest or weed control at 70 g/ha [2, 14]: 60 to 74%; pest or weed control at 140 g/ha [2, 14]: 60 to 74%; pest or weed control at 70 g/ha [2, 15]: 75 to 84%; pest or weed control at 140 g/ha [2, 15]: 75 to 84%; pest or weed control at 70 g/ha [2, 16]: 75 to 84%; pest or weed control at 140 g/ha [2, 16]: 75 to 84%; pest or weed control at 70 g/ha [2, 17]: 0 to 29%; pest or weed control at 140 g/ha [2, 17]: 0 to 29% |
| COC(=O)c1nc(-c2ccc(I)cc2)nc(N)c1OC [Compound 18] | 75 to 84% | 75 to 84% | 0 to 29% | 0 to 29% | 75 to 84% | 95 to 100% | 85 to 94% | 95 to 100% | 95 to 100% | 95 to 100% | 95 to 100% | 95 to 100% | 0 to 29% | 45 to 59% | 95 to 100% | 95 to 100% | 0 to 29% | 30 to 44% | 0 to 29% | 45 to 59% | pest or weed control at 70 g/ha [2, 13]: 0 to 29%; pest or weed control at 140 g/ha [2, 13]: 0 to 29%; pest or weed control at 70 g/ha [2, 14]: 0 to 29%; pest or weed control at 140 g/ha [2, 14]: 0 to 29%; pest or weed control at 70 g/ha [2, 15]: 30 to 44%; pest or weed control at 140 g/ha [2, 15]: 0 to 29%; pest or weed control at 70 g/ha [2, 16]: 30 to 44%; pest or weed control at 140 g/ha [2, 16]: 30 to 44%; pest or weed control at 70 g/ha [2, 17]: 95 to 100%; pest or weed control at 140 g/ha [2, 17]: 95 to 100% |
